Data set [1] concerns A549 tumours. In words: Organ distribution experiment in mice bearing A549 tumours. It counts as in vivo. Conditions: for % dose/g adrenals / % dose/g blood / % dose/g bone / % dose/g brain / % dose/g fat / % dose/g heart / % dose/g intestine / % dose/g kidney / % dose/g liver / % dose/g lung / % dose/g muscle / % dose/g ovary / % dose/g pancreas / % dose/g skin / % dose/g spleen / % dose/g stomach / % dose/g tail / % dose/g thyroid / % dose/g tumour / % dose/g uterus: i.v. 250 kBq.

For data set [2], the system named is A549 tumour. In words: PET/CT imaging in mice bearing A549 tumours. It counts as in vivo. To be noted: 60 min after i.v. 10 MBq, 20 min acquisition.
Data set [3] deals with H460 tumour. Kind of data set: PET in rats bearing H460 tumours. It is filed as in vivo. Conditions: 80 min after i.v. 18 MBq, 20 min acquisition.
The subject of data set [4] is A549 and H460 tumour cells. Kind of data set: Cell uptake of F-18-labelled glutamic acid derivative in tumour cells. Conditions: for cellular uptake (FIG. 2): after 30 min.
From the text: Following labelling with F-18, (2S,4S)-2-amino-4-(3-[F-18]fluoropropyl)pentanedioic acid was examined in cell experiments with A549 and H460 tumour cells (both human non-small-cell bronchial carcinoma cell lines).
Data set [5] deals with A549 cells. Kind of data set: Competition cell experiment: uptake of tracer 4R/S-[F-18]F-L-glutamic acid in presence of competitor. Conditions: competitor 1 mM; for % Tracer uptake: A549 cells, 10 min incubation with 0.250 MBq 4R/S-[F-18]F-L-Glu in PBS buffer; for inhibition of tracer uptake (competition): tracer 4R/S-[F-18]F-L-glutamic acid. It counts as cell-based, human. Here is the method:
The uptake of the glutamic acid derivatives according to the invention into tumour cells was investigated in cell experiments. Here, the uptake of a radiolabelled glutamic acid derivative (4R/S—[F-18]F-L-glutamic acid) was examined in the presence of the compounds according to the invention and control susbtances (competition experiments). The compounds according to the invention were employed in excess (1 mM) over 4R/S—[F-18]F-L-glutamic acid (tracer).

Bounds are passed on as bounds.

`N[C@@H](C[C@H](CCC[18F])C(=O)O)C(=O)O`: in data set [1] (0.25 h), the “% dose/g adrenals” value stood at 0.94 % dose/g, the “% dose/g blood” value is 0.72 % dose/g, the “% dose/g bone” value is recorded as 0.44 % dose/g and the “% dose/g brain” value turned out to be 0.09 % dose/g. In data set [1] (0.25 h), the “% dose/g fat” value came to 0.31 % dose/g, the “% dose/g heart” value worked out at 0.42 % dose/g, the “% dose/g intestine” value came out at 1.27 % dose/g and the “% dose/g kidney” value amounted to 14.38 % dose/g. Further, in data set [1] (0.25 h), the “% dose/g liver” value is 0.55 % dose/g, the “% dose/g lung” value came to 1.35 % dose/g, the “% dose/g muscle” value came out at 0.17 % dose/g and the “% dose/g ovary” value is on record as 1.82 % dose/g. Also, in data set [1] (0.25 h), the “% dose/g skin” value came out at 1.71 % dose/g, the “% dose/g spleen” value is 2.87 % dose/g, the “% dose/g stomach” value is listed as 3.25 % dose/g and the “% dose/g tail” value was determined as 2.74 % dose/g. In addition, in data set [1] (0.25 h), the “% dose/g thyroid” value is given as 1.17 % dose/g and the “% dose/g uterus” value came out at 1.30 % dose/g. For the same compound, in data set [1] (0.5 h), the “% dose/g adrenals” value was determined as 0.78 % dose/g, the “% dose/g blood” value is listed as 0.35 % dose/g, the “% dose/g bone” value worked out at 0.37 % dose/g and the “% dose/g brain” value is 0.10 % dose/g. In data set [1] (0.5 h), the “% dose/g fat” value is listed as 0.08 % dose/g, the “% dose/g heart” value stood at 0.20 % dose/g, the “% dose/g intestine” value was 0.90 % dose/g and the “% dose/g kidney” value came to 6.44 % dose/g. Further, in data set [1] (0.5 h), the “% dose/g liver” value worked out at 0.46 % dose/g, the “% dose/g lung” value is 1.08 % dose/g, the “% dose/g muscle” value worked out at 0.09 % dose/g and the “% dose/g ovary” value amounted to 1.13 % dose/g. For the same compound, in data set [1] (0.5 h), the “% dose/g skin” value is 2.26 % dose/g, the “% dose/g spleen” value amounted to 1.76 % dose/g, the “% dose/g stomach” value is 2.64 % dose/g and the “% dose/g tail” value is listed as 3.45 % dose/g. In data set [1] (0.5 h), the “% dose/g thyroid” value is recorded as 1.31 % dose/g and the “% dose/g uterus” value turned out to be 1.27 % dose/g. In data set [1] (1.0 h), the “% dose/g adrenals” value amounted to 0.27 % dose/g, the “% dose/g blood” value was 0.13 % dose/g, the “% dose/g bone” value amounted to 0.20 % dose/g and the “% dose/g brain” value amounted to 0.06 % dose/g. Besides, in data set [1] (1.0 h), the “% dose/g fat” value was found to be 0.04 % dose/g, the “% dose/g heart” value is reported as 0.08 % dose/g, the “% dose/g intestine” value was 0.52 % dose/g and the “% dose/g kidney” value came to 2.01 % dose/g. For the same compound, in data set [1] (1.0 h), the “% dose/g liver” value came out at 0.21 % dose/g, the “% dose/g lung” value is 0.50 % dose/g, the “% dose/g muscle” value was 0.05 % dose/g and the “% dose/g ovary” value came out at 0.94 % dose/g. For the same compound, in data set [1] (1.0 h), the “% dose/g skin” value worked out at 1.80 % dose/g, the “% dose/g spleen” value was found to be 1.02 % dose/g, the “% dose/g stomach” value was found to be 0.96 % dose/g and the “% dose/g tail” value amounted to 1.19 % dose/g. For the same compound, in data set [1] (1.0 h), the “% dose/g thyroid” value was found to be 0.77 % dose/g and the “% dose/g uterus” value is 0.93 % dose/g. In data set [1] (2.00 h), the “% dose/g adrenals” value is given as 0.20 % dose/g, the “% dose/g blood” value is 0.07 % dose/g, the “% dose/g bone” value worked out at 0.20 % dose/g and the “% dose/g brain” value is 0.05 % dose/g. Besides, in data set [1] (2.00 h), the “% dose/g fat” value is listed as 0.09 % dose/g, the “% dose/g heart” value is listed as 0.05 % dose/g, the “% dose/g intestine” value turned out to be 0.32 % dose/g and the “% dose/g kidney” value turned out to be 0.80 % dose/g. Also, in data set [1] (2.00 h), the “% dose/g liver” value is given as 0.11 % dose/g, the “% dose/g lung” value was 0.29 % dose/g, the “% dose/g muscle” value is reported as 0.03 % dose/g and the “% dose/g ovary” value was 0.28 % dose/g. In addition, in data set [1] (2.00 h), the “% dose/g skin” value came out at 1.01 % dose/g, the “% dose/g spleen” value is 0.53 % dose/g, the “% dose/g stomach” value is given as 0.39 % dose/g and the “% dose/g tail” value is listed as 1.69 % dose/g. Further, in data set [1] (2.00 h), the “% dose/g thyroid” value is on record as 0.42 % dose/g and the “% dose/g uterus” value turned out to be 0.37 % dose/g. The “uptake into the bones” value in data set [1] (bones, at all points in time) was less than 0.5 % ID/g. Also, in data set [1] (kidneys, after 0.25 h), the uptake in kidneys was determined as 14.4 % ID/g. The same compound had an activity in kidneys in data set [1] (kidneys, after 1 h) of 2 % ID/g. Moreover, the “% dose/g pancreas” value in data set [1] (pancreas, 0.25 h) came to 13.64 % dose/g. Further, in data set [1] (pancreas, 0.5 h), the “% dose/g pancreas” value turned out to be 8.51 % dose/g. For the same compound, the “% dose/g pancreas” value in data set [1] (pancreas, 1.0 h) was 3.99 % dose/g. For the same compound, the “% dose/g pancreas” value in data set [1] (pancreas, 2.00 h) is reported as 1.35 % dose/g. Also, the uptake in pancreas in data set [1] (pancreas, after 0.25 h) is 13.6 % ID/g. Moreover, the activity in pancreas in data set [1] (pancreas, after 1 h) is given as 4 % ID/g. Moreover, the “% dose/g tumour” value in data set [1] (tumour, 0.25 h) is on record as 2.42 % dose/g. In data set [1] (tumour, 0.25 h after injection), the “injected dose per g in the tumour” value is reported as 2.4 % ID/g. The “% dose/g tumour” value in data set [1] (tumour, 0.5 h) is listed as 1.82 % dose/g. For the same compound, the “% dose/g tumour” value in data set [1] (tumour, 1.0 h) is 1.58 % dose/g. In data set [1] (tumour, 2.00 h), the “% dose/g tumour” value worked out at 0.97 % dose/g. This compound came in with a tumour uptake in data set [1] (tumour, after 1 h) of 1.6 % ID/g. Moreover, the “uptake into the A549 tumour (PET/CT image analysis)” value in data set [2] is “high uptake”. For the same compound, the “uptake into the H460 tumour (PET image analysis)” value in data set [3] is given as “high uptake”. Moreover, in data set [4], the “cellular uptake (FIG. 2)” value is reported as 840 000 cpm/100 000 cells. The cellular uptake in data set [4] (after 30 min of incubation, A549 and H460 tumour cells) is listed as 899 000 cpm per 100 000 cells. Further, in data set [4] (after 30 minutes of incubation), the “accumulation in tumour cells compared to [F-18]FDG” value is “accumulates to a greater degree”.

In the case of `N[C@@H](C[C@H](CCCF)C(=O)O)C(=O)O` [4S-(3-fluoropropyl)-L-Glu, (2S,4S)-2-Amino-4-(3-fluoropropyl)pentanedioic acid], in data set [5], the “% Tracer uptake” value was 5.4% and the “inhibition of tracer uptake (competition)” value (“inhibition of tracer uptake” for short) was greater than 94%.

With `N[C@@H](C[C@@H](O)C(=O)O)C(=O)O` [(4R)-hydroxy-L-Glu], in data set [5], the “% Tracer uptake” value is 29.6% and the “inhibition of tracer uptake” value is 70%.

In the case of `C[C@H](C[C@H](N)C(=O)O)C(=O)O` [(4R)-methyl-L-Glu], in data set [5], the “% Tracer uptake” value was determined as 33.5% and the “inhibition of tracer uptake” value is on record as 64%.

Consider `NC(CC(F)C(=O)O)C(=O)O` [(4R/S)-fluoro-D/L-Glu], for which the “% Tracer uptake” value in data set [5] came to 16.3%.

Turning to `N[C@@H](C[C@H](O)C(=O)O)C(=O)O` [(4S)-hydroxy-L-Glu], in data set [5], the “% Tracer uptake” value came out at 13.2% and the “inhibition of tracer uptake” value worked out at 87%.

`C[C@@H](C[C@H](N)C(=O)O)C(=O)O` [(4S)-methyl-L-Glu]: in data set [5], the “% Tracer uptake” value was 7.7% and the “inhibition of tracer uptake” value came to 92%.

With `N[C@@H](CCC(=O)O)C(=O)O` [L-Glu, L-configured glutamic acid], in data set [5], the “% Tracer uptake” value was determined as 12.6% and the “inhibition of tracer uptake” value worked out at 87%.

For the compound `OC[C@H]1OC(O)[C@H]([18F])[C@@H](O)[C@@H]1O` (stereo partly shown) [[F-18]FDG, [^18F]-2-Fluorodeoxyglucose, reference compound], the “cellular uptake (FIG. 2)” value in data set [4] is on record as 770 000 cpm/100 000 cells.

The values are drawn from patent US20110165076A1, “NOVEL [F-18]- LABELLED L-GLUTAMIC ACID AND L-GLUTAMINE DERIVATIVES (I), USE THEREOF AND METHOD FOR THEIR PRODUCTION” (BAYER SCHERING PHARMA AKTIENGESELLSCHAFT, priority 2008, published 2011).
